Measurements as given in PubChem BioAssay AID1963977 (Molecular Pharmacology Branch, DTP, NCI, 2024).

Test system: 624824-186-R-J3-PDC multicell spheroids, viability
Assay: Anticancer human tumor 624824-186-R-J3-PDC patient-derived colon adenocarcinoma cell line growth inhibition [PI3K]
Details: for IC50: curve of first compound; for viability, T/C: stronger effect = lower value
Summary of the method: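 Combination activity was assessed by viability in multicellular tumor spheroids carrying HUVEC and MSC components. Agents were tested with PI3K inhibitors from a Cmax-based top dose (or 10 microM) downward in half-log increments.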

[1] = second compound 0.00316 µM, first compound 0.0316 µM
[2] = second compound 0.00316 µM, first compound 0.1 µM
[3] = second compound 0.00316 µM, first compound 0.316 µM
[4] = second compound 0.00316 µM, first compound 1 µM
[5] = second compound 0.00316 µM, first compound 3.16 µM
[6] = second compound 0.00316 µM, first compound 10 µM
[7] = second compound 0.01 µM, first compound 0.0316 µM
[8] = second compound 0.01 µM, first compound 0.1 µM
[9] = second compound 0.01 µM, first compound 0.316 µM
[10] = second compound 0.01 µM, first compound 1 µM
[11] = second compound 0.01 µM, first compound 3.16 µM
[12] = second compound 0.01 µM, first compound 10 µM
[13] = second compound 0.0316 µM, first compound 0.0316 µM
[14] = second compound 0.0316 µM, first compound 0.1 µM
[15] = second compound 0.0316 µM, first compound 0.316 µM
[16] = second compound 0.0316 µM, first compound 1 µM
[17] = second compound 0.0316 µM, first compound 3.16 µM
[18] = second compound 0.0316 µM, first compound 10 µM
[19] = second compound 0.1 µM, first compound 0.0316 µM
[20] = second compound 0.1 µM, first compound 0.1 µM
[21] = second compound 0.1 µM, first compound 0.316 µM
[22] = second compound 0.1 µM, first compound 1 µM
[23] = second compound 0.1 µM, first compound 3.16 µM
[24] = second compound 0.1 µM, first compound 10 µM
[25] = second compound 0.316 µM, first compound 0.0316 µM
[26] = second compound 0.316 µM, first compound 0.1 µM
[27] = second compound 0.316 µM, first compound 0.316 µM
[28] = second compound 0.316 µM, first compound 1 µM
[29] = second compound 0.316 µM, first compound 3.16 µM
[30] = second compound 0.316 µM, first compound 10 µM
[31] = second compound 1 µM, first compound 0.0316 µM
[32] = second compound 1 µM, first compound 0.1 µM
[33] = second compound 1 µM, first compound 0.316 µM
[34] = second compound 1 µM, first compound 1 µM
[35] = second compound 1 µM, first compound 3.16 µM
[36] = second compound 1 µM, first compound 10 µM
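Further: spheroids exposed to agents for seven days before luminescence read.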
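Wherever viability, T/C is given: luminescent signal used as a stand-in for spheroid viability; percent viability relative to DMSO vehicle control wells taken as 100%.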

CC1(C)CCC(CN2CCN(c3ccc(C(=O)NS(=O)(=O)c4ccc(NCC5CCOCC5)c([N+](=O)[O-])c4)c(Oc4cnc5[nH]ccc5c4)c3)CC2)=C(c2ccc(Cl)cc2)C1 + COc1c(OCCCN2CCOCC2)ccc2c3n(c(=NC(=O)c4cnc(N)nc4)nc12)CCN3
IC50 (second compound 0.00316 µM): > 10 µM
IC50 (second compound 0.01 µM): > 10 µM
IC50 (second compound 0.0316 µM): > 10 µM
IC50 (second compound 0.1 µM): > 10 µM
IC50 (second compound 0.316 µM): < 0.0316 µM
IC50 (second compound 1 µM): < 0.0316 µM
viability, T/C [1]: 114%
viability, T/C [2]: 99.2%
viability, T/C [3]: 111%
viability, T/C [4]: 102%
viability, T/C [5]: 121%
viability, T/C [6]: 105%
viability, T/C [7]: 93.7%
viability, T/C [8]: 99.5%
viability, T/C [9]: 105%
viability, T/C [10]: 105%
viability, T/C [11]: 105%
viability, T/C [12]: 107%
viability, T/C [13]: 95%
viability, T/C [14]: 96.8%
viability, T/C [15]: 89.6%
viability, T/C [16]: 87.6%
viability, T/C [17]: 99.1%
viability, T/C [18]: 85.2%
viability, T/C [19]: 73.1%
viability, T/C [20]: 83.8%
viability, T/C [21]: 74.4%
viability, T/C [22]: 75.5%
viability, T/C [23]: 65%
viability, T/C [24]: 80%
viability, T/C [25]: 50.7%
viability, T/C [26]: 46.9%
viability, T/C [27]: 50.7%
viability, T/C [28]: 47.2%
viability, T/C [29]: 43.1%
viability, T/C [30]: 57.9%
viability, T/C [31]: 29.5%
viability, T/C [32]: 33.7%
viability, T/C [33]: 31.5%
viability, T/C [34]: 33.7%
viability, T/C [35]: 26.9%
viability, T/C [36]: 30.8%

CCCS(=O)(=O)Nc1ccc(F)c(C(=O)c2c[nH]c3ncc(-c4ccc(Cl)cc4)cc23)c1F + COc1c(OCCCN2CCOCC2)ccc2c3n(c(=NC(=O)c4cnc(N)nc4)nc12)CCN3
IC50 (second compound 0.00316 µM): 5.31 µM
IC50 (second compound 0.01 µM): 3.71 µM
IC50 (second compound 0.0316 µM): 1.87 µM
IC50 (second compound 0.1 µM): 0.331 µM
IC50 (second compound 0.316 µM): < 0.0316 µM
IC50 (second compound 1 µM): < 0.0316 µM
viability, T/C [1]: 87.3%
viability, T/C [2]: 103%
viability, T/C [3]: 114%
viability, T/C [4]: 96.9%
viability, T/C [5]: 82.5%
viability, T/C [6]: 10.3%
viability, T/C [7]: 102%
viability, T/C [8]: 102%
viability, T/C [9]: 84.8%
viability, T/C [10]: 74.8%
viability, T/C [11]: 61.5%
viability, T/C [12]: 13.6%
viability, T/C [13]: 95.7%
viability, T/C [14]: 86.3%
viability, T/C [15]: 65.4%
viability, T/C [16]: 67%
viability, T/C [17]: 42.6%
viability, T/C [18]: 16.1%
viability, T/C [19]: 74.7%
viability, T/C [20]: 66%
viability, T/C [21]: 46.4%
viability, T/C [22]: 37.7%
viability, T/C [23]: 27.5%
viability, T/C [24]: 9.08%
viability, T/C [25]: 44%
viability, T/C [26]: 37.5%
viability, T/C [27]: 31.8%
viability, T/C [28]: 24.1%
viability, T/C [29]: 17.2%
viability, T/C [30]: 8.93%
viability, T/C [31]: 29%
viability, T/C [32]: 27.1%
viability, T/C [33]: 20.4%
viability, T/C [34]: 17.2%
viability, T/C [35]: 12.5%
viability, T/C [36]: 6.57%

C[C@@H](NC(=O)c1ncnc(N)c1Cl)c1ncc(C(=O)Nc2cc(C(F)(F)F)c(Cl)cn2)s1 + COc1c(OCCCN2CCOCC2)ccc2c3n(c(=NC(=O)c4cnc(N)nc4)nc12)CCN3
IC50 (second compound 0.00316 µM): > 10 µM
IC50 (second compound 0.01 µM): > 10 µM
IC50 (second compound 0.0316 µM): > 10 µM
IC50 (second compound 0.1 µM): 4.44 µM
IC50 (second compound 0.316 µM): 0.538 µM
IC50 (second compound 1 µM): < 0.0316 µM
viability, T/C [1]: 108%
viability, T/C [2]: 114%
viability, T/C [3]: 109%
viability, T/C [4]: 103%
viability, T/C [5]: 99%
viability, T/C [6]: 85.8%
viability, T/C [7]: 107%
viability, T/C [8]: 97.9%
viability, T/C [9]: 95.6%
viability, T/C [10]: 96.2%
viability, T/C [11]: 92.5%
viability, T/C [12]: 80.2%
viability, T/C [13]: 91.3%
viability, T/C [14]: 103%
viability, T/C [15]: 91.5%
viability, T/C [16]: 99.1%
viability, T/C [17]: 76.8%
viability, T/C [18]: 52.1%
viability, T/C [19]: 88.2%
viability, T/C [20]: 82.1%
viability, T/C [21]: 78.3%
viability, T/C [22]: 76.9%
viability, T/C [23]: 54.1%
viability, T/C [24]: 38.5%
viability, T/C [25]: 54.4%
viability, T/C [26]: 60.6%
viability, T/C [27]: 59.2%
viability, T/C [28]: 41%
viability, T/C [29]: 28.5%
viability, T/C [30]: 23.1%
viability, T/C [31]: 32.9%
viability, T/C [32]: 31.5%
viability, T/C [33]: 31%
viability, T/C [34]: 25%
viability, T/C [35]: 20.3%
viability, T/C [36]: 14.8%
